One series concerns K562 cells. The series is described as follows: Cytotoxicity by LDH release. The settings on record: K562, 20 uM, two days. In general terms: Release of lactate dehydrogenase indicates damage to the cell membrane.
The target of series [1] is T1, human TOP2A(431-1193) (Homo sapiens, UniProt P11388).
T1 construct: 6xHis (N); made in house; host or cells: E. coli BL21 (DE3)
The series is described as follows: Microscale thermophoresis (MST) binding assay. The settings on record: 5 nM NT647-labelled TOP2A(431-1193). How it is done: It was transformed into BL21 (DE3) E. coli cells and induced by 0.5 mM IPTG for 16 h at 16 °C. Cells were lysed by sonication and protein purification was by chromatography with the Ni-NTA beads (Invitrogen), followed by a size exclusion chromatography (Superdex 200). […] A serial dilution of the inhibitors was prepared with 100% DMSO and subsequently mixed with the labeled fluorescent protein in the assay buffer (20 mM Tris pH 8.0, 100 mM NaCl, 0.1% NP40, 0.2 mM TCEP, and 0.1 mM PMSF) at the final concentrations of 0.015–500 uM. The final concentration of the protein was 5 nM. The labeled protein and small molecules mix were allowed to incubate in the dark at room temperature for 5 min before filling the capillaries. MST assays were performed with 5–20% LED/excitation power and medium MST power using premium capillaries for Monolith NT.115. The data for the estimation of Kd were analyzed using MO Affinity Analysis software from Nanotemper.
(§1) (A) Ethidium bromide displacement assays were performed by mixing 100 µg/mL salmon sperm DNA with −/+2 µg/mL ethidium bromide and the indicated compounds. Reactions were subjected to fluorescence emission of 590 nm and excitation of 535 nm. Obtained signals were detected by using the Multimode Microplate Reader (Infinite F500). […] Reactions were subjected to 5–20% LED/excitation power and medium MST power using premium capillaries. Obtained signals were detected by using the Monolith NT.115 system. The change in thermophoresis is expressed as the change in the normalized fluorescence (ΔFnorm). MST assays were repeated with two control compounds, enzalutamide (Enza) and merbarone.
For orientation: MST reads how a fluorescent partner responds to local heating, with and without ligand.

The next series concerns salmon sperm DNA. The series is described as follows: Ethidium bromide displacement assay. The settings on record: 100 µg/mL salmon sperm DNA, 2 µg/mL ethidium bromide. It is filed as binding. As to the method: as §1
The target in series [2] is T1, human TOP2A(431-1193). The experiment in a line: EMSA, TOP2A(431-1193) with 5ZRF DNA oligo. The settings on record: 2 uM protein, 300 nM oligo. It is filed as binding. (In general: In EMSA bound probe runs differently from free probe, usually more slowly.)
Series [3] concerns the target T1, human TOP2A(431-1193). The experiment in a line: Fluorescence polarization (FP) assay of TOP2A-DNA interaction. It is filed as binding. The settings on record: 500 nM protein, 0.01-200 µM compound. As to the method: Fluorescent polarization assay was performed in Corning® Low Volume 384-well Black Flat Bottom microplate. […] Triplicate reactions were transferred onto the microplate and incubated at room temperature for 20 min. Fluorescence polarization (FP) measurements were taken by Tecan Infinite F500 with the excitation wavelength of 485 nm and emission wavelength of 535 nm.
(A) EMSA was performed by purified full-length TOP2A or TOP2B proteins at a contraction of 300 nM with IRDay700 labeled 5ZRF DNA oligo at a concentration of 100 nM in the presence of −/+200 µM of ICRF193, T60, T637, and T638. […] Reactions were subjected to fluorescence […], which were detected by using the Multimode Microplate Reader (Infinite F500). (D) DNA cleavage assays were performed using full-length human TOP2A and TOP2B incubated with the supercoiled pHOT plasmid in the presence of 200 µM of etoposide plus 1, 100, or 200 µM of ICRF193, T60, T637, and T638. Reactions were separated on a DNA gel with ethidium bromide. All experiments were repeated three times, and one representative image was shown. Note: N, nicked DNA; L, linear DNA; and SC, supercoiled DNA.

From article PMC8345109, “Optimization of New Catalytic Topoisomerase II Inhibitors as an Anti-Cancer Therapy” (Cancers, 2021) come the findings set out here.

The structures appear in SMILES notation.

T1 sequence (P11388 431-1193): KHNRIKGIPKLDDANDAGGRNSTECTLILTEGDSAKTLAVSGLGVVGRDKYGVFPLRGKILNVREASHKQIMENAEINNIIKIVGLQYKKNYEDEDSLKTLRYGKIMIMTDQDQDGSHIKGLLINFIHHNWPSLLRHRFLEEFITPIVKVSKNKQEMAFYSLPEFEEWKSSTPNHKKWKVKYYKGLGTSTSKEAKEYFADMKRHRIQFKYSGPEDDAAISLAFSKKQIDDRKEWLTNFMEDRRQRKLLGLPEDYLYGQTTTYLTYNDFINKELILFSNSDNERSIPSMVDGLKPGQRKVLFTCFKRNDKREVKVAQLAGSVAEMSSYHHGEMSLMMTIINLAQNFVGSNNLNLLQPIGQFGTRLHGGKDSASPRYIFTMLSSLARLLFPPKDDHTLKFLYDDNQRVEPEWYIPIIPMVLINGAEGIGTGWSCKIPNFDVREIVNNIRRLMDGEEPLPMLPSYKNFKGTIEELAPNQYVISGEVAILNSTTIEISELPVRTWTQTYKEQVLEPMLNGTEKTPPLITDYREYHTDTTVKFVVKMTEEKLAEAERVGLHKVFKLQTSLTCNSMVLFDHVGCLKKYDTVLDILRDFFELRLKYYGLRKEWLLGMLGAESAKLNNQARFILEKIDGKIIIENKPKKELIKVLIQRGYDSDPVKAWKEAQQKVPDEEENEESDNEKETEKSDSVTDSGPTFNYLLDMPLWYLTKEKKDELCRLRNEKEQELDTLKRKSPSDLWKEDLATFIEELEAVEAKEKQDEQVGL
Description for K562 cells: (A) K562 cells were treated with 0, 0.5, 1, 5, 10, 15, and 20 uM of T60 or 0, 0.5, 1, 5, 10, 15, 20, 50, and 100 uM of T637 and T638 for 24, 48, or 72 h. […] (B) NCI-H446 small cell lung cancer line and Hela cervical cancer line were treated with 0, 0.5, 1, 5, 10, 15, and 20 uM of T60 or 0, 0.5, 1, 5, 10, 15, 20, 50, and 100 uM of T637 and T638 for five days. Cell growth rates were measured by using Incucyte^TM. (C) K562 cells were treated with 0, 5, 10, 15, and 20 uM of T60, T637, or T638 for 48 h. Cytotoxicity was evaluated by measuring the LDH levels from the culture media. (D) K562 cells were treated with the vehicle or 10–20 µM of etoposide, T60, T637, or T638 for 4 h. Immunoblotting measured p-H2AXγ levels in cells with vinculin as a loading control.

With `COc1cc([C@@H]2c3cc4c(cc3[C@@H](O[C@@H]3O[C@@H]5CO[C@@H](C)O[C@H]5[C@H](O)[C@H]3O)[C@H]3COC(=O)[C@H]23)OCO4)cc(OC)c1O` [etoposide, reference compound], in the series on K562 cells, the “Cytotoxicity (LDH release)” value is “up to 70%”.

`CNC(=O)c1ccc(N2C(=S)N(c3ccc(C#N)c(C(F)(F)F)c3)C(=O)C2(C)C)cc1F` [enzalutamide]: the “Binding to TOP2A(431-1193) by MST (change of thermophoresis), in words” value on human TOP2A(431-1193) [1] is on record as “no alteration of thermophoresis”.

As to `COc1cc(NS(C)(=O)=O)ccc1Nc1c2ccccc2nc2ccccc12` [m-AMSA, amsacrine, reference compound], in the series on salmon sperm DNA, the “Fluorescence induced by the ethidium bromide/DNA complex reduced by increasing doses (DNA intercalation)” value is on record as “reduced”.

As to `O=C1NC(=S)NC(=O)C1C(=O)Nc1ccccc1` [merbarone, reference compound], the “Binding to TOP2A(431-1193) by MST (change of thermophoresis), in words” value on human TOP2A(431-1193) [1] is recorded as “no interaction”. Also, the “Inhibition of TOP2A(431-1193)-DNA interaction (EMSA)” value on human TOP2A(431-1193) [2] is “did not affect the formation of the TOP2–DNA complex”. Further, at human TOP2A(431-1193) [3], the “Effect on TOP2A-DNA interaction (FP)” value was “did not affect TOP2A–DNA interaction”.
